Ends that are not written are not given here.

Experiment [1] concerns the target T1, Ste2p mutant receptor Cys1H4 (M54I) (Saccharomyces cerevisiae, UniProt D6VTK4, M54I).
T1 construct: expressed in transfected cells; host or cells: S. cerevisiae yJB013 (ste2-deleted reporter strain), p416GPD plasmid
Put plainly: cell-based. It counts as cell-based. The protocol:
(§1) Yeast were grown overnight at 30 °C and 225 rpm in 250 mL Erlenmeyer flasks and then diluted to an OD600 = 0.1 in the appropriate medium, typically CSM-Ura or SDCAA-Ura, or commercially sourced pooled human urine. Immediately after dilution, the peptide ligand was added. The culture was incubated for 2.5 h at 30 °C with 225 rpm shaking. Cells were centrifuged at 2000g for 5 min and supernatant was removed. Cells were resuspended in 1x PBS in preparation for flow cytometry.
(§2) Analytical flow cytometry was performed with the BD LSR II (BD Biosciences, San Jose, USA); yEGFP was read on the Alexa-Flour 488 channel, and mKate was read on the PE-Texas Red channel. Receptor output was measured by dividing the mean GFP fluorescence by the mean RFP fluorescence for a population. EC50 values were calculated by fitting the receptor output to a four-parameter logistic curve, and determining which ligand concentration produced an output equivalent to half of the receptor’s maximum output.
(§3) The dose response curves were modeled to fit the following four-parameter logistic curve: [drawing 2] where a is the minimum value, b is the maximum value, c is the EC50, and d is the hill coefficient. The fluorescent receptor output, y, to a given concentration x of ligand, was determined by the following equation: [drawing 3] where GFP is downstream of the receptor pathway and mKate is constitutively expressed (see Strain and Plasmid Construction, Methods Section).
(§4) Data were fit to the Michaelis–Menten equation: [drawing 4] where the fluorescent receptor output, y, to a given concentration x of ligand, was determined by the following equation: [drawing 5] where GFP is downstream of the receptor pathway and mKate is constitutively expressed (see Strain and Plasmid Construction, Methods Section).

Experiment [2] has as its target T2, Ste2p mutant receptor Cys1H5 (M54I, C59S) (Saccharomyces cerevisiae, UniProt D6VTK4, C59S/M54I).
T2 construct: expressed in transfected cells; host or cells: S. cerevisiae yJB013 (ste2-deleted reporter strain), p416GPD plasmid
In words: cell-based. It counts as cell-based. The protocol:
as §1, §2, §3, §4

For experiment [3], the target named is T3, Ste2p mutant receptor Cys5R2 (Saccharomyces cerevisiae, UniProt D6VTK4, F55L/K225T/M218T/M54I/N158Y/R74K/Y26F).
T3 construct: expressed in transfected cells; host or cells: S. cerevisiae yJB013 (ste2-deleted reporter strain), p416GPD plasmid
In words: cell-based. As for the experimental part: as §1, §2, §3, §4

For experiment [4], the target named is T4, Ste2p mutant receptor Cys2K3 (Saccharomyces cerevisiae, UniProt D6VTK4, K225T/M218T/M54I/N158Y/S356T).
T4 construct: expressed in transfected cells; host or cells: S. cerevisiae yJB013 (ste2-deleted reporter strain), p416GPD plasmid
In words: cell-based. As for the experimental part: as §1, §2, §3, §4

In experiment [5] the target is T5, Ste2p mutant receptor Cys4L3 (Saccharomyces cerevisiae, UniProt D6VTK4, K225T/M218T/M54I/N158F/R74K/T167R/Y26F).
T5 construct: expressed in transfected cells; host or cells: S. cerevisiae yJB013 (ste2-deleted reporter strain), p416GPD plasmid
In words: cell-based. The protocol: as §1, §2, §3, §4

Experiment [6] deals with T6, Ste2p mutant receptor Cys5R7 (Saccharomyces cerevisiae, UniProt D6VTK4, D3N/K225T/L228F/M218T/M54I/N158Y).
T6 construct: expressed in transfected cells; host or cells: S. cerevisiae yJB013 (ste2-deleted reporter strain), p416GPD plasmid
Put plainly: cell-based. The protocol: as §1, §2, §3, §4

The target of experiment [7] is T7, Ste2p mutant receptor Cys2K2 (Saccharomyces cerevisiae, UniProt D6VTK4, M218K/M54I/Q272Y).
T7 construct: expressed in transfected cells; host or cells: S. cerevisiae yJB013 (ste2-deleted reporter strain), p416GPD plasmid
In words: cell-based. The protocol: as §1, §2, §3, §4

Experiment [8] deals with T8, Ste2p (wild type) (Saccharomyces cerevisiae, UniProt D6VTK4).
T8 construct: expressed in transfected cells; host or cells: S. cerevisiae YJB015 (MPY578t5 ste2::LEU2, fus1::yeGFP, TRP1::mKate) carrying plasmid pJB036
T8 sequence (D6VTK4 1-431): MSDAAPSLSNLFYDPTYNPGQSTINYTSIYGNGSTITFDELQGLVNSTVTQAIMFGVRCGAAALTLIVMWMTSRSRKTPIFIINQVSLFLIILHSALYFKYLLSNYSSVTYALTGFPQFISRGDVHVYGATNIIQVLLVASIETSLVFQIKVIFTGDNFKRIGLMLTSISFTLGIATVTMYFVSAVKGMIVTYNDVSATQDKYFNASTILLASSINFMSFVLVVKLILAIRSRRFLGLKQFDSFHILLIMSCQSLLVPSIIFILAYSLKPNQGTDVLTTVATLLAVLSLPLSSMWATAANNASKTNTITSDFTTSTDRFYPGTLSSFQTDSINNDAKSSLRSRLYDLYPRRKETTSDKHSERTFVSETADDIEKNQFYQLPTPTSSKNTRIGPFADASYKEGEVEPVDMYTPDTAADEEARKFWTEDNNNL
Put plainly: Yeast GFP/RFP reporter response of native receptor Ste2p to peptide ligand (flow cytometry). It counts as cell-based. The protocol: as §1
Analytical flow cytometry was performed with the BD LSR II (BD Biosciences, San Jose, USA); yEGFP was read on the Alexa-Flour 488 channel, and mKate was read on the PE-Texas Red channel. Receptor output was measured by dividing the mean GFP fluorescence by the mean RFP fluorescence for a population. EC50 values were calculated by fitting the receptor output to a four-parameter logistic curve, and determining which ligand concentration produced an output equivalent to half of the receptor’s maximum output. […]
as §4

Experiment [9] addresses T9, Ste2p mutant receptor Cys5R9 (Saccharomyces cerevisiae, UniProt D6VTK4, K225T/L228F/M218T/M54I/N158F/R74K/S121R/T167R/Y26F).
T9 construct: expressed in transfected cells; host or cells: S. cerevisiae yJB013 (ste2-deleted reporter strain), p416GPD plasmid
Put plainly: cell-based. As for the experimental part:
as §1, §2, §3, §4

Experiment [10] concerns the target T3, Ste2p mutant receptor Cys5R2. In words: Receptor Cys5R2 response in trypsinized pooled human urine. It counts as cell-based. The note with it: 500 μM ligand; pooled human urine digested with trypsin (50% Tryp-LE, 37 °C overnight, boiled); n = 3. As for the experimental part: as §1, §2
(§5) When trypsinized urine was used as the sample matrix, urine was mixed with Tryp-LE Express (Life Technologies, Grand Island, USA) to a final concentration of 50%. Mixtures were incubated at 37 °C overnight. Trypsin was inactivated by boiling the samples at 99 °C for 10 min. Samples were stored at −80 °C until assayed.

Experiment [11] concerns the target T5, Ste2p mutant receptor Cys4L3. Put plainly: Receptor Cys4L3 response in trypsinized pooled human urine. It counts as cell-based. The note with it: 500 μM ligand; pooled human urine digested with trypsin (50% Tryp-LE, 37 °C overnight, boiled); n = 3. The protocol: as §1, §2, §5
For experiment [12], the target named is T6, Ste2p mutant receptor Cys5R7. In words: Receptor Cys5R7 response in trypsinized pooled human urine. It counts as cell-based. Conditions: 500 μM ligand; pooled human urine digested with trypsin (50% Tryp-LE, 37 °C overnight, boiled); n = 3. As for the experimental part: as §1, §2, §5
The target in experiment [13] is T9, Ste2p mutant receptor Cys5R9. In words: Receptor Cys5R9 response in trypsinized pooled human urine. It counts as cell-based. The note with it: 500 μM ligand; pooled human urine digested with trypsin (50% Tryp-LE, 37 °C overnight, boiled); n = 3. The protocol:
as §1, §2, §5

In experiment [14] the test system is Round 3 Ste2p mutant receptors. Put plainly: Counter-sorting for specificity: round 3 Ste2p mutants evolved for Variant 56. It counts as cell-based, Saccharomyces cerevisiae. The note with it: library sorted with 100 nM Variant 56, counter-sorted against 100 nM α-factor; Supplementary Figure 1. As for the experimental part: Specificity can be evolved
Supplementary Figure 1- Receptors can be counter-sorted against alpha-factor to increase specificity towards the target ligand- Variant […]
Variant 56 (sequence: […]), which contains a single-amino acid substitution compared to α-factor. In round 1, error prone PCR was performed on Ste2p to create a library of mutant receptors that were subjected to sorting with 100 nM Variant 56. The best mutant isolated from this sort was re-mutagenized to create a new library. The new library was sorted in round 2 with 100 nM Variant 56, and did show an improvement in detecting Variant 56 (panel a). In round 3, the sorted library from round 2 was screened […]
(also on this page, place not known: 0 1 2 3 4 Ste2p 1 2 Fold Increase Over Inac ve Receptor (GFP/RFP) Var. 56 0 1 2 3 4 Ste2p 1 2 3* Fold Increase Over Inac ve Receptor (GFP/RFP) α-factor 0.0 0.2 0.4 0.6 0.8 1.0 Ste2p 1 2 3* Rela ve Ac va on (Var. 56/α-factor) Rounds of Mutagenesis & Screening (a) (c) (b)) […]
(1 picture or pasted object on this page, not shown here)

T9 sequence (D6VTK4 1-319 Y26F/M54I/R74K/S121R/N158F/T167R/M218T/K225T/L228F): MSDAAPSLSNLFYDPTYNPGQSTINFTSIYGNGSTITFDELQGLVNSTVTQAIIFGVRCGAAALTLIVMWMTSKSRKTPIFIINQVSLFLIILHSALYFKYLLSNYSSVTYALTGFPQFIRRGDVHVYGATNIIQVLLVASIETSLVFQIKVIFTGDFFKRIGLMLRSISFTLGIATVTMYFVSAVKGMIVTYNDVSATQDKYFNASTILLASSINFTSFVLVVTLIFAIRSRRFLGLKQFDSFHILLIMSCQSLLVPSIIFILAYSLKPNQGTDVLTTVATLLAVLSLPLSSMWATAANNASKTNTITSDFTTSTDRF
T4 sequence (D6VTK4 whole entry M54I/N158Y/M218T/K225T/S356T): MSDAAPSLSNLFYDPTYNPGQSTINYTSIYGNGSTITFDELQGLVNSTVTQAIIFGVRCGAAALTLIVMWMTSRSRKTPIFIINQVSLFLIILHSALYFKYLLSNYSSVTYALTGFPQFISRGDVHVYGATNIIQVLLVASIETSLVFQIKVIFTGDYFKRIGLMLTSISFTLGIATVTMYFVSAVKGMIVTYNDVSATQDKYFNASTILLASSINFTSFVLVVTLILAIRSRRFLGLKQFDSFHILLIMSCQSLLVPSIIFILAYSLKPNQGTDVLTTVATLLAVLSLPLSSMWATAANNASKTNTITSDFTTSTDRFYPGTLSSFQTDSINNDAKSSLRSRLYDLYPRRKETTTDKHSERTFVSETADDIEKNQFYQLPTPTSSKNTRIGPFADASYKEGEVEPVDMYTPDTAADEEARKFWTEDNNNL
T3 sequence (D6VTK4 1-319 Y26F/M54I/F55L/R74K/N158Y/M218T/K225T): as the sequence (D6VTK4 1-319 Y26F/M54I/R74K/S121R/N158F/T167R/M218T/K225T/L228F) above, with F55L, R121S, F158Y, R167T, F228L counted along it
T5 sequence (D6VTK4 1-319 Y26F/M54I/R74K/N158F/T167R/M218T/K225T): as the sequence (D6VTK4 1-319 Y26F/M54I/R74K/S121R/N158F/T167R/M218T/K225T/L228F) above, with R121S, F228L counted along it
T6 sequence (D6VTK4 other isoform, or with tags, fused parts or gaps D3N/M54I/N158Y/M218T/K225T/L228F): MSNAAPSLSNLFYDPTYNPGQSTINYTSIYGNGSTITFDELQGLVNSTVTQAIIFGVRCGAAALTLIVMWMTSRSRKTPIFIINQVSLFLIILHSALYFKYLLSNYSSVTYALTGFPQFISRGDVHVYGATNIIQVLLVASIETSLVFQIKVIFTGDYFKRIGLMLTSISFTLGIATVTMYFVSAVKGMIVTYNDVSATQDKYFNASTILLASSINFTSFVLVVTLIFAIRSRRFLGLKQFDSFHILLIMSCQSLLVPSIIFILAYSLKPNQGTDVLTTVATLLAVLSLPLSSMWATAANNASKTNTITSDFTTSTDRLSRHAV
T1 sequence (D6VTK4 whole entry M54I): as the sequence (D6VTK4 whole entry M54I/N158Y/M218T/K225T/S356T) above, with Y158N, T218M, T225K, T356S counted along it
T2 sequence (D6VTK4 whole entry M54I/C59S): as the sequence (D6VTK4 whole entry M54I/N158Y/M218T/K225T/S356T) above, with C59S, Y158N, T218M, T225K, T356S counted along it
T7 sequence (D6VTK4 whole entry M54I/M218K/Q272Y): as the sequence (D6VTK4 whole entry M54I/N158Y/M218T/K225T/S356T) above, with Y158N, T218K, T225K, Q272Y, T356S counted along it

As a reminder, the EC50 is the concentration needed to bring the measured effect to its halfway point. A lower EC50 goes with higher potency in that assay. As for `CSCC[C@H](NC(=O)[C@@H]1CCCN1C(=O)[C@H](CCC(N)=O)NC(=O)CNC(=O)[C@@H]1CCCN1C(=O)[C@H](CCCCN)NC(=O)[C@H](CC(C)C)NC(=O)[C@H](CCC(N)=O)NC(=O)[C@H](CC(C)C)NC(=O)[C@H](Cc1c[nH]c2ccccc12)NC(=O)[C@H](Cc1c[nH]cn1)NC(=O)[C@@H](N)Cc1c[nH]c2ccccc12)C(=O)N[C@@H](Cc1ccc(O)cc1)C(N)=O` [α-factor amidated, reference compound], the EC50 was 50.1 nM in experiment [1]; 58.9 nM in [2]; 9.12 nM in experiment [3]; 58.9 nM in experiment [4]; 6.76 nM in experiment [5]; 6.31 nM in experiment [6]. Further, the EC50 in [7] was 70.8 nM; in experiment [8] (log10 of EC50 in M ± error, 4-parameter logistic fit of GFP/RFP output, 2.5 h, 30 °C, flow cytometry, Supplementary Table 1), 229 nM.

Take ALALKPGEPMY [Cys2]: the EC50 in experiment [4] is 117 nM; in [7], 316 nM.

For ALDFAVGEPMK-NH2 [Cys5 amidated], the 50% effective concentration (EC50) in experiment [1] is 158000 nM; in [2], 234000 nM; in experiment [3], 4900 nM; in [4] it was 6170 nM; in experiment [5] it was 3470 nM; in experiment [9], 3.47 µM. In addition, the concentration giving a half-maximal response (EC50) is 2690 nM in experiment [6] and 81300 nM in [7].

On to “ALDFAVGEYNK-NH2 [Cys7 amidated, C-terminally amidated cystatin C tryptic peptide Cys7]”, for which the “Detection of ligand in pooled human urine” value in experiment [10], in experiment [11], in experiment [12] and in [13] was “able to detect” each time. Besides, the “Ligand concentration at which the receptor responds (sensitivity)” value worked out at 1 mM in experiment [1] (Supplementary Figure 3C legend); 1 mM in experiment [2] (Supplementary Figure 3C legend); 100 µM in experiment [3]; 100 µM in [5] (Cys4 value with a new stock of Cys4 peptide); 500 µM in experiment [9]; 50 µM in [6]. In addition, the “Ligand concentration at which the receptor responds (sensitivity)” value in [8] (as stated in text / figure legend) is recorded as 1 mM. In experiment [6] (receptor Cys5R7 versus Ste2p, same ligand), this molecule returned an Improvement in sensitivity of 20 fold.

With HALALKPGEPMY [Cys1], the values for the 50% effective concentration (EC50) in experiment [1] and in experiment [2] were 141 nM and 129 nM, respectively.

In the case of “WHYLQLKPGQPMY [Variant 56, α-factor variant with a single-amino acid substitution]”, in experiment [14], the “Activation of round 3 mutants (fold increase GFP/RFP; relative activation Var. 56/α-factor)” value is reported as “preferentially activated”.

These data come from publication PMC5820653, “Detection of a Peptide Biomarker by Engineered Yeast Receptors” (ACS Synthetic Biology, 2018).
